According to patent US6130053A, “Method for selecting compounds for inhibition of neoplastic lesions” (priority 1999, dated 2000):

What was measured:
[1] = test system: PKG activity in SW480 cells; assay: PKG activity in SW480 cells (phosphorylation of GST-cGB-PDE5); format: cell-based, human; conditions: 48 hrs; with and without added cGMP; exisulind 200-600 μM, E4021 0.1-10 μM
Experimental: Two different types of PDE inhibitors were evaluated for their effects on PKG in neoplastic cells. […], exisulind, was evaluated since it is anti-neoplastic. […] No. 09/173,375 to Liu et al filed Oct. 15, 1998. To test the effect of cGMP-specific PDE inhibition on neoplasia containing the APC mutation, SW480 colon cancer cells were employed. SW 480 is known to contain the APC mutation. […] The liquid media are aspirated from the dishes (the cells will attach themselves to the dishes). […] Immediately after the cell lysis buffer is added, the lysed cells are collected by scraping the cells off each dish. The cell lysate from each dish is transferred to a microfuge tube, and the microfuge tubes are incubated at 4° C. for 15 minutes while gently agitating the microfuge tubes to allow the cells to lyse completely. After lysis is complete, the microfuge tubes are centrifuged full speed (14,000 r.p.m.) for 15 minutes. The supernatant from each microfuge tube is transferred to a fresh microfuge tube. A protein assay is then performed on the contents of each microfuge tube because the amount of total protein will be greater in the control than in the drug-treated samples, if the drug inhibits cell growth. Obviously, if the drug does work, the total protein in the drug-treated samples should be […] control. […]

[2] = test system: PKG activity in HCT116 cells; assay: PKG activity in HCT116 cells; format: cell-based
From the text: To test the effect of cGMP-specific PDE inhibition on neoplasia containing the β-catenin mutation, HCT116 colon cancer cells were employed. HCT116 is known to contain the β-catenin mutation, but is known not to contain the APC mutation.
The same procedure is used to grow the HCT116 cells as is used in the SW480 procedure described above. In this experiment, only exisulind and controls were used.

β-catenin in SW480 cells = assay: β-catenin level by Western blot in SW480 cells; format: cell-based, human; conditions: 48 hours
Experimental: SW480 cells were treated with exisulind or vehicle (0.1% DMSO) for 48 hours. 50 μg supernatant of each cell lysates were loaded to 10% SDS-gel and blotted to nitrocellulose membrane, and the membrane was probed with rabbit-anti-β-catenin and rabbit anti-PKG antibodies.
This observation was made by culturing SW480 cells with either 200-600 μM exisulind or vehicle (0.1% DMSO). The cells are harvested 48 hours post treatment and processed for immunoblotting. Immuno-reactive protein can be detected by western blot. […] Thus, using PKG activity in neoplastia as a screening tool to select compounds as anti-neoplastics is useful.

## CC1=C(CC(=O)O)c2cc(F)ccc2/C1=C\c1ccc(S(C)(=O)=O)cc1 [Exisulind, 5-fluoro-2-methyl-1-(p-methylsulfonylbenzylidene)-3-indenylacetic acid]
[1]
  PKG activity relative to control: causes PKG activity to increase in a dose-dependent manner
[2]
  PKG activity relative to control: phosphorylated to a greater extent than the corresponding controls
β-catenin in SW480 cells
  β-catenin level by Western blot: drop of β-catenin
